Measured values: patent EP2193713A1, “Method for fighting animal pests without damaging pollinating insects” (Bayer CropScience AG, priority 2008, dated 2010)
Read-outs that look alike come from different tables or passages of the source.

Columns and labels:
Assay type in all cases: in vivo
Apis mellifera [1] = test: Tent test / drench application / bees: foraging activity; conditions: for Aktivität der Nahrungssuche, Zahl der Bienen / min / 4 m^2: 10 mg a.s./pl.
Excerpt: Der Test wurde wie folgt durchgeführt:

Apis mellifera [2] = test: Tunnel test / spray application / bees: acute mortality of pupae in front of the hive; conditions: 50 g a.s./ha
Excerpt: (§1) Der Test wurde gemäß EPPO (European Plant Protection Organisation) Leitlinie 170 wie folgt durchgeführt:
Tabelle 2 (siehe auch Figur 2)

Apis mellifera [3] = conditions: for Zahl toter Arbeiterbienen: 10 mg a.s./pl.
Excerpt: (§2) Die Mortalität von Arbeiterbienen vor dem Bienenstock wird mittels einer Falle für tote Bienen (dead bee trap) bestimmt. Die Falle besteht aus Maschendraht und ist vor dem Bienenstock angebracht. Einzelne, lebende Bienen können die Maschen des Drahts passieren, der Transport toter Bienen durch die Maschen ist nicht möglich, weswegen tote Bienen sich in der Falle ansammeln. Tabelle 1 (siehe auch Figur 1)

Apis mellifera [4] = test: Tunnel test / spray application / bees: brood development (share of comb cells); conditions: 50 g a.s./ha
Excerpt: as §1
Über alle Waben eines Bienenstocks wird der jeweilige Anteil an Zellen bestimmt, der durch Pollen, Nektar, Eier, Larven oder Puppen belegt ist bzw. leer ist. […]

Apis mellifera [5] = conditions: for Zahl toter Arbeiterbienen: 50 g a.s./ha
Excerpt: as §1, §2

Apis mellifera [6] = test: Greenhouse test / residue test / bees: mortality after contact with treated tomato leaves; conditions: 50 g a.s./ha
Excerpt: Der Versuch wurde wie folgt durchgeführt:
Die Tomatenpflanzen wurden im Gewächshaus mit den Testverbindungen bzw. der Referenzsubstanz behandelt (Spritzappliaktion, 3 fache Wiederholung). 1, 3, 6 und 13 Tage nach Behandlung (DAA) wurden Blätter entnommen (je 5 Blattproben pro Behandlung) und in Boxen gegeben. In jede Box wurden 10 Bienen transferiert und die Boxen wurden unter kontrollierten Bedingungen aufbewahrt, wobei die Bienen mit Zuckerlösung gefüttert wurden. 24, 48 und 72 nach Transfer der Bienen wurde deren Mortalität bestimmt. Tabelle 9 (siehe auch Figur 9)

Apis mellifera [7] = test: Tunnel test / spray application / bees: foraging activity; conditions: for Aktivität der Nahrungssuche, Zahl der Bienen / min / m^2: 50 g a.s./ha
Excerpt: as §1
Während einer Minute werden in einem abgegrenzten Bereich von 2 x 1 m^2 die Bienen gezählt, die auf Blüten absitzen. Tabelle 3 (siehe auch Figur 3)

[8] = result in words, 27 Tage nach Applikation

## CN1COCN(Cc2cnc(Cl)s2)/C1=N\[N+](=O)[O-] [Thiamethoxam, reference compound]
Apis mellifera [1]; 5 DAA
  Aktivität der Nahrungssuche, Zahl der Bienen / min / 4 m^2: 28 Bienen / min / 4 m^2
Apis mellifera [1]; 6 DAA b (14:30 Uhr)
  Aktivität der Nahrungssuche, Zahl der Bienen / min / 4 m^2: 70 Bienen / min / 4 m^2
Apis mellifera [1]; 7 DAA
  Aktivität der Nahrungssuche, Zahl der Bienen / min / 4 m^2: 23 Bienen / min / 4 m^2
Apis mellifera [1]; 8 DAA
  Aktivität der Nahrungssuche, Zahl der Bienen / min / 4 m^2: 25 Bienen / min / 4 m^2
Apis mellifera [1]; 9 DAA
  Aktivität der Nahrungssuche, Zahl der Bienen / min / 4 m^2: 19 Bienen / min / 4 m^2
Apis mellifera [1]; 11 DAA
  Aktivität der Nahrungssuche, Zahl der Bienen / min / 4 m^2: 16 Bienen / min / 4 m^2
Apis mellifera [1]; 13 DAA
  Aktivität der Nahrungssuche, Zahl der Bienen / min / 4 m^2: 14 Bienen / min / 4 m^2
Apis mellifera [1]; 15 DAA
  Aktivität der Nahrungssuche, Zahl der Bienen / min / 4 m^2: 8 Bienen / min / 4 m^2
Apis mellifera [1]; 16 DAA
  Aktivität der Nahrungssuche, Zahl der Bienen / min / 4 m^2: 15 Bienen / min / 4 m^2
Apis mellifera [1]; 17 DAA
  Aktivität der Nahrungssuche, Zahl der Bienen / min / 4 m^2: 13 Bienen / min / 4 m^2
Apis mellifera [1]; 18 DAA
  Aktivität der Nahrungssuche, Zahl der Bienen / min / 4 m^2: 6 Bienen / min / 4 m^2
Apis mellifera [1]; result in words, tent test, drench, I-5 20 mg a.s. / Pflanze, Thiamethoxam 10 mg a.s. / Pflanze (13 Tage nach Applikation)
  Aktivität der Nahrungssuche: fast vollständige Einstellung der Aktivität der Nahrungssuche
Apis mellifera [2]; 0 DAA c (17:15 Uhr)
  Zahl toter Puppen: 0
Apis mellifera [2]; 1 DAA
  Zahl toter Puppen: 0
Apis mellifera [2]; 2 DAA
  Zahl toter Puppen: 0,1
Apis mellifera [2]; 5 DAA
  Zahl toter Puppen: 0,5
Apis mellifera [2]; 6 DAA
  Zahl toter Puppen: 0
Apis mellifera [2]; 11 DAA
  Zahl toter Puppen: 0
Apis mellifera [2]; 14 DAA
  Zahl toter Puppen: 0,4
Apis mellifera [2]; 18 DAA
  Zahl toter Puppen: 0
Apis mellifera [2]; 21 DAA
  Zahl toter Puppen: 0
Apis mellifera [2]; 25 DAA
  Zahl toter Puppen: 0,2
Apis mellifera [2]; -3 DAA (before application)
  Zahl toter Puppen: 0
Apis mellifera [3]; 6 DAA a (9:30 Uhr)
  Zahl toter Arbeiterbienen: 143
Apis mellifera [3]; 6 DAA b (14:30 Uhr)
  Zahl toter Arbeiterbienen: 35
Apis mellifera [3]; 7 DAA
  Zahl toter Arbeiterbienen: 394
Apis mellifera [3]; 8 DAA
  Zahl toter Arbeiterbienen: 143
Apis mellifera [3]; 9 DAA
  Zahl toter Arbeiterbienen: 78
Apis mellifera [3]; 10 DAA
  Zahl toter Arbeiterbienen: 295
Apis mellifera [3]; 11 DAA
  Zahl toter Arbeiterbienen: 110
Apis mellifera [3]; 14 DAA
  Zahl toter Arbeiterbienen: 40
Apis mellifera [3]; 16 DAA
  Zahl toter Arbeiterbienen: 74
Apis mellifera [3]; 18 DAA
  Zahl toter Arbeiterbienen: 29
Apis mellifera [3]; result in words, tent test, drench, I-5 20 mg a.s. / Pflanze, Thiamethoxam 10 mg a.s. / Pflanze
  Mortalität von Arbeiterbienen vor dem Bienenstock: ausgeprägte Mortalität
Apis mellifera [4]; 1 Tag vor Applikation
  Anteil an Zellen: Eier: 17,5%
  Anteil an Zellen: Larven: 9%
  Anteil an Zellen: Leer: 30%
  Anteil an Zellen: Nektar: 12%
  Anteil an Zellen: Pollen: 2,4%
  Anteil an Zellen: Puppen: 29,1%
Apis mellifera [4]; 6 Tage nach Applikation
  Anteil an Zellen: Eier: 11,4%
  Anteil an Zellen: Larven: 6,3%
  Anteil an Zellen: Leer: 30,9%
  Anteil an Zellen: Nektar: 19,4%
  Anteil an Zellen: Pollen: 3,3%
  Anteil an Zellen: Puppen: 28,7%
Apis mellifera [4]; 14 Tage nach Applikation
  Anteil an Zellen: Eier: 19,4%
  Anteil an Zellen: Larven: 7,4%
  Anteil an Zellen: Leer: 51,8%
  Anteil an Zellen: Nektar: 9,2%
  Anteil an Zellen: Pollen: 1,5%
  Anteil an Zellen: Puppen: 10,7%
Apis mellifera [4]; 27 Tage nach Applikation
  Anteil an Zellen: Eier: 6,1%
  Anteil an Zellen: Larven: 2%
  Anteil an Zellen: Leer: 52%
  Anteil an Zellen: Nektar: 15,5%
  Anteil an Zellen: Pollen: 5,1%
  Anteil an Zellen: Puppen: 19,2%
Apis mellifera [4]; [8]
  Zahl der Larven: starke Abnahme
  leere Wabenzellen: Verdoppelung
Apis mellifera [5]; 0 DAA b (15:15 Uhr)
  Zahl toter Arbeiterbienen: 420
Apis mellifera [5]; 0 DAA c (17:15 Uhr)
  Zahl toter Arbeiterbienen: 45,3
Apis mellifera [5]; 1 DAA
  Zahl toter Arbeiterbienen: 152,8
Apis mellifera [5]; 2 DAA
  Zahl toter Arbeiterbienen: 229,4
Apis mellifera [5]; 3 DAA
  Zahl toter Arbeiterbienen: 50,2
Apis mellifera [5]; 4 DAA
  Zahl toter Arbeiterbienen: 891,6
Apis mellifera [5]; 5 DAA
  Zahl toter Arbeiterbienen: 2,4
Apis mellifera [5]; 6 DAA
  Zahl toter Arbeiterbienen: 9
Apis mellifera [5]; 11 DAA
  Zahl toter Arbeiterbienen: 16,5
Apis mellifera [5]; -3 DAA (before application)
  Zahl toter Arbeiterbienen: 1,6
Apis mellifera [5]; result in words, tunnel test, spray, I-5 75 und 150 g a.s./ha, Thiamethoxam 50 g a.s./ha
  Mortalität von Arbeiterbienen vor dem Bienenstock: ausgeprägte Mortalität
Apis mellifera [6]; leaves taken 1 Tag nach Behandlung, 24 h contact
  Mortalität: 100%
Apis mellifera [6]; leaves taken 1 Tag nach Behandlung, 48 h contact
  Mortalität: 100%
Apis mellifera [6]; leaves taken 1 Tag nach Behandlung, 72 h contact
  Mortalität: 100%
Apis mellifera [6]; leaves taken 3 Tage nach Behandlung, 24 h contact
  Mortalität: 100%
Apis mellifera [6]; leaves taken 3 Tage nach Behandlung, 48 h contact
  Mortalität: 100%
Apis mellifera [6]; leaves taken 3 Tage nach Behandlung, 72 h contact
  Mortalität: 100%
Apis mellifera [6]; leaves taken 6 Tage nach Behandlung, 24 h contact
  Mortalität: 100%
Apis mellifera [6]; leaves taken 6 Tage nach Behandlung, 48 h contact
  Mortalität: 100%
Apis mellifera [6]; leaves taken 6 Tage nach Behandlung, 72 h contact
  Mortalität: 100%
Apis mellifera [6]; leaves taken 13 Tage nach Behandlung, 24 h contact
  Mortalität: 93,3%
Apis mellifera [6]; leaves taken 13 Tage nach Behandlung, 48 h contact
  Mortalität: 93%
Apis mellifera [6]; leaves taken 13 Tage nach Behandlung, 72 h contact
  Mortalität: 93,3%
Apis mellifera [7]; 0 DAA a (09:30 Uhr)
  Aktivität der Nahrungssuche, Zahl der Bienen / min / m^2: 26,8 Bienen / min / m^2
Apis mellifera [7]; 0 DAA c (14:15 Uhr)
  Aktivität der Nahrungssuche, Zahl der Bienen / min / m^2: 0,9 Bienen / min / m^2
Apis mellifera [7]; 0 DAA e (17:15 Uhr)
  Aktivität der Nahrungssuche, Zahl der Bienen / min / m^2: 0,4 Bienen / min / m^2
Apis mellifera [7]; 1 DAA b (15:30 Uhr)
  Aktivität der Nahrungssuche, Zahl der Bienen / min / m^2: 0 Bienen / min / m^2
Apis mellifera [7]; 2 DAA
  Aktivität der Nahrungssuche, Zahl der Bienen / min / m^2: 1,5 Bienen / min / m^2
Apis mellifera [7]; 3 DAA
  Aktivität der Nahrungssuche, Zahl der Bienen / min / m^2: 1,6 Bienen / min / m^2
Apis mellifera [7]; 6 DAA
  Aktivität der Nahrungssuche, Zahl der Bienen / min / m^2: 5,4 Bienen / min / m^2
Apis mellifera [7]; -1 DAA (before application)
  Aktivität der Nahrungssuche, Zahl der Bienen / min / m^2: 26,1 Bienen / min / m^2
Apis mellifera [7]; -2 DAA (before application)
  Aktivität der Nahrungssuche, Zahl der Bienen / min / m^2: 35,2 Bienen / min / m^2
Apis mellifera [7]; -3 DAA (before application)
  Aktivität der Nahrungssuche, Zahl der Bienen / min / m^2: 24,5 Bienen / min / m^2
Apis mellifera [7]; result in words, tunnel test, spray, I-5 75 und 150 g a.s./ha, Thiamethoxam 50 g a.s./ha directly after application
  Aktivität der Nahrungssuche: fast vollständige Einstellung der Aktivität der Nahrungssuche
